What was measured:
[1] = target: Signal transducer and activator of transcription 3 (Homo sapiens, UniProt P40763); assay: Inhibition of IL-6-induced STAT3 phosphorylation at Tyr705 in human HeLa cells by Western blot analysis; assay type: cell-based
HeLa = assay: Inhibition of cell growth in human HeLa cells by MTT assay; assay type: functional, cell-based
MDA-MB-231 = assay: Inhibition of cell growth in human MDA-MB-231 cells by MTT assay; assay type: functional, cell-based
U-266 = assay: Antiproliferative activity against human U-266 cells; assay type: functional, cell-based

Sequence of Signal transducer and activator of transcription 3 (P40763 whole entry): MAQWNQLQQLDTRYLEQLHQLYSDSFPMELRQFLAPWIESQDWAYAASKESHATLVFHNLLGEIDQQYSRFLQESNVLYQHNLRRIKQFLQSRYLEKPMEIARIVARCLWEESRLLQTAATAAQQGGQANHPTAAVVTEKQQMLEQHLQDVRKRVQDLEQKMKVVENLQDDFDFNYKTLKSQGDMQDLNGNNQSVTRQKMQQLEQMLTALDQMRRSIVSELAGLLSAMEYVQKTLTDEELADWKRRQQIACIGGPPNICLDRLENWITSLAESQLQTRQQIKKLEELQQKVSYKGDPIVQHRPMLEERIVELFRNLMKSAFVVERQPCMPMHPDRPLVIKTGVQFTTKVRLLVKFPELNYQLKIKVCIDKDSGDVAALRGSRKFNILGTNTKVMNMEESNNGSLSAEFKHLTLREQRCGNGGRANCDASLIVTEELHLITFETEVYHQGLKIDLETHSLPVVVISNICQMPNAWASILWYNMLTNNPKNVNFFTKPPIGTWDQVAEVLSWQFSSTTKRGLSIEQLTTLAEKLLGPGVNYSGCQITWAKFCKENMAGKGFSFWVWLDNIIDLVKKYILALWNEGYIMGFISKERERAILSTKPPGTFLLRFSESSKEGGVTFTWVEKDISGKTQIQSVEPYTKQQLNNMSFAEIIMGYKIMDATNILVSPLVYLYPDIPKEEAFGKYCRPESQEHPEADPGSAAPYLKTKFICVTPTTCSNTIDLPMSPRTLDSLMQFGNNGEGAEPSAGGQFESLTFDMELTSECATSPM

Row | Compound | IC50 [1] [µM] | IC50 (HeLa) [µM] | IC50 (MDA-MB-231) [µM] | inhibition ([1]; dose <= 100.0 µM) | IC50 (U-266) [µM]
1 | C=C1C2=C(C(=O)N1OC)[C@H](O)[C@@](C)(O)[C@@H](CCCCC)O2 | 7.3 | 6.1 | 19.8 |  | 
2 | C=C1C2=C(C(=O)N1OC)[C@H](O)[C@@](C)(O)[C@H](CCCCC)O2 | 13.5 | 8.8 | 29.7 | Dose-dependent-effect | 6.7
3 | CCCCC[C@@H]1OC2=C(C(=O)N(OC)C2=O)[C@H](O)[C@@]1(C)O | > 100 | > 50 | > 50 |  | 
4 | C=C1C2=C(C(=O)N1OC)[C@@H](O)[C@@](C)(O)[C@H](CCCCC)O2 | 20.2 | 8.4 | 24.2 |  | 

Now from value to compound, other results behind:

Row | IC50 [1] [µM] | IC50 (HeLa) [µM] | IC50 (MDA-MB-231) [µM] | inhibition ([1]; dose <= 100.0 µM) | Compound | IC50 (U-266) [µM]
5 | 9.2 | 4.2 | 16.2 |  | C=C1C2=C(C(=O)N1OC)[C@@H](O)[C@@](C)(O)[C@@H](CCCCC)O2 | 
6 | < 6.3 | 0.57 | 3.4 |  | O=[N+]([O-])c1ccc2c(c1)S(=O)(=O)C=C2 | 
7 | 6.6 | 4.2 | 8.9 |  | C=C1C2=C(C(=O)N1OC)[C@@H](O)[C@](C)(O)[C@@H](CCCCC)O2 | 
